Experimental data from patent US20050245600A1, “Novel antimalarial agent” (Osaka Bioscience Institute, priority 2002, published 2005).
Converted amounts (≈) assume the structure as drawn. Like-named read-outs stand apart in the source and are kept apart here.

How the values were obtained:
human cancer cell KB3-1 = assay: KB3-1 cell growth inhibition (MTT) to examine toxicity; type: cell-based; settings: for IC50: Table 3, read-out: KB3-1 (IC50, μg/mL); for Selective toxicity: IC50 (KB3-1)/IC50 (P. falciparum)
Procedure: To 100 μL (2×10^4/ml) of floating liquid of KB3-1 cells, 100 μL of test compound containing a liquid which was prepared by dissolving a test compound in DMSO and diluted to an appropriate concentration (final concentration of DMSO: 1%) was added. The mixture was incubated under 5% CO2 at 37° C. After 72 hours incubation, 25 μL of MTT reagent was added and incubation was effected for 3 hours before only medium was aspiratedly removed. To the medium 200 μL of DMSO was added, the resulting MTT folmazan was extracted and the amount of the dye was quantitatively measured by a calorimetric method (540 nm). The number of survival cell was counted from the amount of formed dye, and percent growth inhibition was determined to assess the toxic activity. Mitomycin C was used as a positive control.

[1] = tested on: Plasmodium berghei (NK65 line); assay: In vivo antimalarial activity, four days inhibition effect in infected mouse; settings: ICR mouse; for Inhibition (%) / Averaged parasite blood (%): fourth day; for Averaged parasite blood (%): average ± SD of 5 mice
Procedure: Four weeks old male mouse was bred at 25° C. under the condition of 12 hours light and 12 hours dark, and used in the assay.
Blood was corrected with a syringe from the heart of a donor mouse with 15 % of parasitaemia. To this blood, trisodium citrate aqueous solution was added in one seventh by volume to prevent coagulation of blood. The resulting solution was diluted with 0.9% aqueous sodium chloride solution so that the final concentration of infected blood cells is 1×10^7 per 0.2 ml. […]
To mouse (one group: 5), 0.2 ml of the infected erythrocytes was administered through tail vein. After 2 hours, the CMC solution (0.2 ml) of the respective concentration prepared above was orally administered. Starting with this time as 0 day, the solution was administered every day till a third day and infection ratio was examined on a fourth day. The infection ratio was determined by collecting blood from mouse tail, preparing smear, and counting infected erythrocytes using a microscope. The infection ratio of control mouse (5 infected mice administered only by the 0.5% CMC solution) was about 28% on the fourth day.
Percent growth inhibition of parasites by test compound was calculated from the following formula: Percent growth inhibition of parasites=(1−averaged infection ratio of mice treated with test compound/averaged infection ratio of control mice)×100
Life prolonging effect by test compound (T/C) was calculated from the following equation. Life Prolonging Effect (T/C)=averaged number of subsistence days of mouse treated by test compound/averaged number of subsistence days of control mouse

[2] = tested on: FCR3 strain (resistant to cycloguanyl) of Plasmodium falciparum; assay: Plasmodium falciparum growth inhibition (Giemsa smear count, 48 hours); type: cell-based; settings: for IC50: Table 3, read-out: P. falciparum (IC50, μg/mL)
Procedure: FCR3 strain (resistant to cycloguanyl) of Plasmodium falciparum isolated in Gambia was used in the experiment to assess anti-malarial activity. Plasmodium falciparum synchronized to a ring phase by sorbitol treatment was injected in 50 μL 96 well plate. The hematocrit value of the culture liquid is 2% and the infection ratio was 0.55%. A substance to be tested was dissolved in DMSO and diluted with medium to an appropriate concentration before 50 μL of a test compound solution was added to the above 96 well plate to the total volume of 100 μL. The final concentration of DMSO added was 1%. Subsequently, after incubation was effected at 37° C. for 48 hours, a sumea film prepared on a slide glass was stained with Giemsa solution. The number of infected erythrocyte among 1000 erythrocytes was counted under an optical microscope. Percent inhibition of malaria parasite growth was calculated for percent infection obtained under the presence of DMSO only and that under the presence of the compound to be tested. Quinine was used as a positive control.

[3] = 25 mg/kg oral, day 0 to third day
[4] = 50 mg/kg oral, day 0 to third day
[5] = 100 mg/kg oral, day 0 to third day
[6] = 200 mg/kg oral, day 0 to third day

O=C1c2c(O)cc(O)cc2O[C@H](c2ccc(O)cc2)[C@H]1c1c(O)cc(O)c2c1O[C@H](c1ccc(O)cc1)[C@@H](O)C2=O [GK-2, 2S,3R,2′S,3′R-5,7,3′,5′,7′-pentahydroxy-2,2′-bis-(4-hydroxyphenyl)-2,3,2′,3′-tetrahydro-[3,8′]bichromenyl-4,4′-dione]
inhibition at 5 µg/mL (human cancer cell KB3-1; Homo sapiens, KB 3-1, Table 2, 5 μg/mL): 22%
inhibition at 50 µg/mL (human cancer cell KB3-1; Homo sapiens, KB 3-1, Table 2, 50 μg/mL): 10%
IC50 (human cancer cell KB3-1; Homo sapiens, KB 3-1): > 100 µg/mL
Selective toxicity (human cancer cell KB3-1): >1100
Averaged subsistence days [1, 3]: 9.5 ± 1.7 days
T/C (life prolonging effect) [1, 3]: 119
Inhibition (%) [1, 3]: 40%
Averaged parasite blood (%) [1, 3]: 17.3 ± 3.4%
Averaged subsistence days [1, 4]: 10.0 ± 0.0 days
T/C (life prolonging effect) [1, 4]: 125
Inhibition (%) [1, 4]: 43%
Averaged parasite blood (%) [1, 4]: 16.6 ± 2.4%
Averaged subsistence days [1, 5]: 10.0 ± 0.0 days
T/C (life prolonging effect) [1, 5]: 125
Inhibition (%) [1, 5]: 52%
Averaged parasite blood (%) [1, 5]: 13.9 ± 2.4%
Averaged subsistence days [1, 6]: 11.0 ± 0.7 days
T/C (life prolonging effect) [1, 6]: 134
Inhibition (%) [1, 6]: 60%
Averaged parasite blood (%) [1, 6]: 11.5 ± 1.2%
inhibition at 0.5 µg/mL ([2]; Table 2, 0.5 μg/mL, read-out: Inhibition of P. falciparum %): 70%
inhibition at 5 µg/mL ([2]; Table 2, 5 μg/mL, read-out: Inhibition of P. falciparum %): 65%
IC50 [2]: 0.09 µg/mL (≈ 0.161 µM)

C=C[C@H]1C[N@@]2CC[C@H]1C[C@H]2[C@H](O)c1ccnc2ccc(OC)cc12 [quinine, reference compound]
inhibition at 0.033 µg/mL ([2]; Table 1 control, 33 ng/mL, read-out: P. falciparum Growth Inhibition (%)): 73%
inhibition at 0.1 µg/mL ([2]; Table 1 control, 100 ng/mL, read-out: P. falciparum Growth Inhibition (%)): 90%
inhibition at 0.033 µg/mL ([2]; Table 2 control, 0.033 μg/mL, read-out: Inhibition of P. falciparum %): 62%
inhibition at 0.1 µg/mL ([2]; Table 2 control, 0.1 μg/mL, read-out: Inhibition of P. falciparum %): 90%
inhibition at 0.033 µg/mL ([2]; Table 3 control, 0.033 μg/mL, read-out: P. falciparum inhibition): 36%
inhibition at 0.1 µg/mL ([2]; Table 3 control, 0.1 μg/mL, read-out: P. falciparum inhibition): 82%

O=C1C[C@@H](c2ccc(O)cc2)Oc2c1c(O)cc(O)c2[C@H]1C(=O)c2c(O)cc(O)cc2O[C@@H]1c1ccc(O)cc1 [GK-1, 2S,3R,2′S-5,7,5′,7′-tetrahydroxy-2,2′-bis-(4-hydroxyphenyl)-2,3,2′,3′-tetrahydoro-[3,8′]bichromenyl-4,4′-dione]
IC50 (human cancer cell KB3-1; Homo sapiens, KB 3-1): 27 µg/mL (≈ 49.8 µM)
Selective toxicity (human cancer cell KB3-1): 77
IC50 [2]: 0.35 µg/mL (≈ 0.645 µM)

O=C1c2c(O)cc(O)c([C@@H]3C(=O)c4c(O)cc(O)cc4O[C@H]3c3ccc(O)cc3)c2O[C@H](c2ccc(O)cc2)[C@H]1O [GK-4, 2R,3S,2′S,3′R-5,7,3′,5′,7′-pentahydroxy-2,2′-bis-(4-hydroxyphenyl)-2,3,2′,3′-tetrahydro-[3,8′]bichromenyl-4,4′-dione]
IC50 (human cancer cell KB3-1; Homo sapiens, KB 3-1): > 100 µg/mL
Selective toxicity (human cancer cell KB3-1): >91
IC50 [2]: 1.1 µg/mL (≈ 1.97 µM)

C[C@@H]1CC[C@H]2[C@@H](C)C(=O)O[C@@H]3O[C@@]4(C)CC[C@@H]1[C@]32OO4 [artemisinin, reference compound]
Averaged subsistence days ([1]; 15 mg/kg): 10.3 ± 2.3 days
T/C (life prolonging effect) ([1]; 15 mg/kg): 129
Inhibition (%) ([1]; 15 mg/kg): 54%
Averaged parasite blood (%) ([1]; 15 mg/kg): 13.3 ± 1.6%

O=C1c2c(O)cc(O)cc2O[C@H](c2ccc(O)cc2)[C@H]1c1c(O)cc(O)c2c1O[C@H](c1ccc(O)c(O)c1)[C@@H](O)C2=O [GK-3, 2S,3R,2′S,3′R-2′-(3,4-dihydroxyphenyl)-5,7,3′,5′,7′-pentahydroxy-2-(4-hydroxyphenyl)-2,3,2′,3′-tetrahydro-[3,8′]bichromenyl-4,4′-dione]
IC50 (human cancer cell KB3-1; Homo sapiens, KB 3-1): > 100 µg/mL
Selective toxicity (human cancer cell KB3-1): >830
IC50 [2]: 0.12 µg/mL (≈ 0.209 µM)
